Calls of active or inactive are those of the source. No cut-off for these calls is given here.
Experiments:
HCT-116 [1] = experiment: Cytotoxicity against human HCT-116 cells assessed as inhibition of cell growth measured after 72 hrs by MTT assay; format: functional, cell-based; conditions: HCT-116, 72 h
MDA-MB-231 = experiment: Cytotoxicity against human MDA-MB-231 cells assessed as inhibition of cell growth at 20 uM measured after 72 hrs by MTT assay relative to control; format: functional
HCT-116 [2] = experiment: Cytotoxicity against human HCT-116 cells assessed as inhibition of cell growth at 20 uM measured after 72 hrs by MTT assay relative to control; format: functional
A549 [3] = experiment: Cytotoxicity against human A549 cells assessed as inhibition of cell growth measured after 72 hrs by MTT assay; format: functional, cell-based; conditions: Homo sapiens, A549, 72 h; read-out: IC50
TAK1-TAB1 fusion protein = TAK1-TAB1 fusion protein (Homo sapiens, UniProt O43318); experiment: Inhibition of Tak1/Tab1 (unknown origin) assessed as inhibition of Tak1 kinase activity preincubated for 30 mins followed by addition of MBP protein and ATP and measured after 2 hrs by ADP-Glo kinase assay
A549 [4] = experiment: Cell cycle arrest in human A549 cells assessed as accumulation at S phase at 0.6 uM measured after 24 hrs by PI staining based Flow cytometry method (reference value: 34.24%); format: functional
A549 [5] = experiment: Cell cycle arrest in human A549 cells assessed as accumulation at G0/G1 phase at 1.2 uM measured after 24 hrs by PI staining based Flow cytometry method (reference value: 55.54%); format: functional
A549 [6] = experiment: Cell cycle arrest in human A549 cells assessed as accumulation at G2/M phase at 1.2 uM measured after 24 hrs by PI staining based Flow cytometry method (reference value: 10.2%); format: functional
A549 [7] = experiment: Cell cycle arrest in human A549 cells assessed as accumulation at S phase at 1.2 uM measured after 24 hrs by PI staining based Flow cytometry method (reference value: 34.24%); format: functional
A549 [8] = experiment: Cell cycle arrest in human A549 cells assessed as accumulation at G0/G1 phase at 1.8 uM measured after 24 hrs by PI staining based Flow cytometry method (reference value: 55.54%); format: functional
A549 [9] = experiment: Cell cycle arrest in human A549 cells assessed as accumulation at G2/M phase at 1.8 uM measured after 24 hrs by PI staining based Flow cytometry method (reference value: 10.2%); format: functional
A549 [10] = experiment: Cell cycle arrest in human A549 cells assessed as accumulation at S phase at 1.8 uM measured after 24 hrs by PI staining based Flow cytometry method (reference value: 34.24%); format: functional
HCT-116 [11] = experiment: Cell cycle arrest in human HCT-116 cells assessed as accumulation at G2/M phase at 1.8 uM measured after 24 hrs by PI staining based Flow cytometry method; format: functional
A549 [12] = experiment: Induction of apoptosis in human A549 cells assessed as viable cells at 0.6 uM measured by annexinV-FITC/propidium iodide staining based flow cytometry analysis (reference value: 97.8%); format: functional; conditions: read-out: Activity
A549 [13] = experiment: Induction of apoptosis in human A549 cells assessed as early apoptotic cells at 0.6 uM measured by annexinV-FITC/propidium iodide staining based flow cytometry analysis (reference value: 1.17%); format: functional
A549 [14] = experiment: Induction of apoptosis in human A549 cells assessed as necrotic cells at 0.6 uM measured by annexinV-FITC/propidium iodide staining based flow cytometry analysis (reference value: 0.42%); format: functional
A549 [15] = experiment: Induction of apoptosis in human A549 cells assessed as viable cells at 1.2 uM measured by annexinV-FITC/propidium iodide staining based flow cytometry analysis (reference value: 97.8%); format: functional; conditions: read-out: Activity
A549 [16] = experiment: Induction of apoptosis in human A549 cells assessed as necrotic cells at 1.2 uM measured by annexinV-FITC/propidium iodide staining based flow cytometry analysis (reference value: 0.42%); format: functional
A549 [17] = experiment: Induction of apoptosis in human A549 cells assessed as viable cells at 1.8 uM measured by annexinV-FITC/propidium iodide staining based flow cytometry analysis (reference value: 97.8%); format: functional; conditions: read-out: Activity
A549 [18] = experiment: Induction of apoptosis in human A549 cells assessed as early apoptotic cells at 1.8 uM measured by annexinV-FITC/propidium iodide staining based flow cytometry analysis (reference value: 1.17%); format: functional
A549 [19] = experiment: Induction of apoptosis in human A549 cells assessed as late apoptotic cells at 1.8 uM measured by annexinV-FITC/propidium iodide staining based flow cytometry analysis (reference value: 0.64%); format: functional
A549 [20] = experiment: Induction of apoptosis in human A549 cells assessed as necrotic cells at 1.8 uM measured by annexinV-FITC/propidium iodide staining based flow cytometry analysis (reference value: 0.42%); format: functional
HCT-116 [21] = experiment: Induction of apoptosis in human HCT-116 cells assessed as early apoptotic cells at 1.8 uM measured by annexinV-FITC/propidium iodide staining based flow cytometry analysis; format: functional
[22] = target: T1, Nuclear factor NF-kappa-B complex (Homo sapiens) (UniProt Q00653+P19838+Q04206); experiment: Inhibition of human NF-kB in human HCT-116 cells assessed as suppression of TNF-alpha induced p-65 phosphorylation at 0.5 to 5 uM pretreated with compounds for 24 hrs followed by TNF-alpha stimulation for 10 mins by Western blot analysis; format: cell-based; conditions: dose 0.5-5 µM, time 1450.0 min
[23] = target: T1, Nuclear factor NF-kappa-B complex (Homo sapiens); experiment: Inhibition of human NF-kB in human HCT-116 cells assessed as suppression of TNF-alpha induced IkBalpha expression at 0.5 to 5 uM pretreated with compounds for 24 hrs followed by TNF-alpha stimulation for 10 mins by Western blot analysis; format: cell-based; conditions: dose 0.5-5 µM, time 1450.0 min
[24] = target: T1, Nuclear factor NF-kappa-B complex (Homo sapiens); experiment: Inhibition of human NF-kB in human HCT-116 cells assessed as suppression of TNF-alpha induced IkBalpha phosphorylation at 0.5 to 5 uM pretreated with compounds for 24 hrs followed by TNF-alpha stimulation for 10 mins by Western blot analysis; format: cell-based; conditions: dose 0.5-5 µM, time 1450.0 min
[25] = target: T1, Nuclear factor NF-kappa-B complex (Homo sapiens); experiment: Inhibition of human NF-kB in human HCT-116 cells assessed as suppression of TNF-alpha induced TAK1 expression at 0.5 to 5 uM pretreated with compounds for 24 hrs followed by TNF-alpha stimulation for 10 mins by Western blot analysis; format: cell-based; conditions: dose 0.5-5 µM, time 1450.0 min
[26] = target: T1, Nuclear factor NF-kappa-B complex (Homo sapiens); experiment: Inhibition of human NF-kB in human A549 cells assessed as suppression of TNF-alpha induced p-65 expression at 0.5 to 5 uM pretreated with compounds for 24 hrs followed by TNF-alpha stimulation for 10 mins by Western blot analysis; format: cell-based; conditions: dose 0.5-5 µM, time 1450.0 min
[27] = target: T1, Nuclear factor NF-kappa-B complex (Homo sapiens); experiment: Inhibition of human NF-kB in human A549 cells assessed as suppression of TNF-alpha induced p-65 phosphorylation at 0.5 to 5 uM pretreated with compounds for 24 hrs followed by TNF-alpha stimulation for 10 mins by Western blot analysis; format: cell-based; conditions: dose 0.5-5 µM, time 1450.0 min
[28] = target: T1, Nuclear factor NF-kappa-B complex (Homo sapiens); experiment: Inhibition of human NF-kB in human A549 cells assessed as suppression of TNF-alpha induced IkBalpha expression at 0.5 to 5 uM pretreated with compounds for 24 hrs followed by TNF-alpha stimulation for 10 mins by Western blot analysis; format: cell-based; conditions: dose 0.5-5 µM, time 1450.0 min
[29] = target: T1, Nuclear factor NF-kappa-B complex (Homo sapiens); experiment: Inhibition of human NF-kB in human A549 cells assessed as suppression of TNF-alpha induced IkBalpha phosphorylation at 0.5 to 5 uM pretreated with compounds for 24 hrs followed by TNF-alpha stimulation for 10 mins by Western blot analysis; format: cell-based; conditions: dose 0.5-5 µM, time 1450.0 min

T1 sequence (P19838 whole entry, looked up): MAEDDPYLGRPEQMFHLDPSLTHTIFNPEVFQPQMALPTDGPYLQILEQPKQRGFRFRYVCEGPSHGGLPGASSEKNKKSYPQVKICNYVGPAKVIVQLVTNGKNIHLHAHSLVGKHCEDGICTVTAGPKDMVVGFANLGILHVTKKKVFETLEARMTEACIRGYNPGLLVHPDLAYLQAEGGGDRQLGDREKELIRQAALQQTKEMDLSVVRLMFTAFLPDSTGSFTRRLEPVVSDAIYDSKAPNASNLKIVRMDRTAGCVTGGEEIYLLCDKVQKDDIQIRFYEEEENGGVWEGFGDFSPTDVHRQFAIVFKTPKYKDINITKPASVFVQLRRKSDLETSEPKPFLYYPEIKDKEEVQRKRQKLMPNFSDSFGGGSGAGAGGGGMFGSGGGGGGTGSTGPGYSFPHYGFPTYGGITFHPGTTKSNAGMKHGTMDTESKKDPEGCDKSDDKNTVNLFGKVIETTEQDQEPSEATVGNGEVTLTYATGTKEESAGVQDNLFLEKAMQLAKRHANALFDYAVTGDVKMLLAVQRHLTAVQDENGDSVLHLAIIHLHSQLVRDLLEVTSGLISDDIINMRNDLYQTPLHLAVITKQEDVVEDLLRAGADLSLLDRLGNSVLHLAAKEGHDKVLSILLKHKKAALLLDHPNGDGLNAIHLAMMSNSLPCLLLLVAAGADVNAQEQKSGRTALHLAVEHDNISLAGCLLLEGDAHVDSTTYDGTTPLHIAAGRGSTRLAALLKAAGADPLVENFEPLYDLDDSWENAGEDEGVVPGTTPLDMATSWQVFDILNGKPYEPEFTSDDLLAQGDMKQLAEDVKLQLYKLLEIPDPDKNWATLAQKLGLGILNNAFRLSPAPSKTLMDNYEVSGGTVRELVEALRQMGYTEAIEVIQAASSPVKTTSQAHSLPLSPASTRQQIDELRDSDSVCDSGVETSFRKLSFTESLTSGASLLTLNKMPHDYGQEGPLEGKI
T1 sequence (Q00653 whole entry, looked up): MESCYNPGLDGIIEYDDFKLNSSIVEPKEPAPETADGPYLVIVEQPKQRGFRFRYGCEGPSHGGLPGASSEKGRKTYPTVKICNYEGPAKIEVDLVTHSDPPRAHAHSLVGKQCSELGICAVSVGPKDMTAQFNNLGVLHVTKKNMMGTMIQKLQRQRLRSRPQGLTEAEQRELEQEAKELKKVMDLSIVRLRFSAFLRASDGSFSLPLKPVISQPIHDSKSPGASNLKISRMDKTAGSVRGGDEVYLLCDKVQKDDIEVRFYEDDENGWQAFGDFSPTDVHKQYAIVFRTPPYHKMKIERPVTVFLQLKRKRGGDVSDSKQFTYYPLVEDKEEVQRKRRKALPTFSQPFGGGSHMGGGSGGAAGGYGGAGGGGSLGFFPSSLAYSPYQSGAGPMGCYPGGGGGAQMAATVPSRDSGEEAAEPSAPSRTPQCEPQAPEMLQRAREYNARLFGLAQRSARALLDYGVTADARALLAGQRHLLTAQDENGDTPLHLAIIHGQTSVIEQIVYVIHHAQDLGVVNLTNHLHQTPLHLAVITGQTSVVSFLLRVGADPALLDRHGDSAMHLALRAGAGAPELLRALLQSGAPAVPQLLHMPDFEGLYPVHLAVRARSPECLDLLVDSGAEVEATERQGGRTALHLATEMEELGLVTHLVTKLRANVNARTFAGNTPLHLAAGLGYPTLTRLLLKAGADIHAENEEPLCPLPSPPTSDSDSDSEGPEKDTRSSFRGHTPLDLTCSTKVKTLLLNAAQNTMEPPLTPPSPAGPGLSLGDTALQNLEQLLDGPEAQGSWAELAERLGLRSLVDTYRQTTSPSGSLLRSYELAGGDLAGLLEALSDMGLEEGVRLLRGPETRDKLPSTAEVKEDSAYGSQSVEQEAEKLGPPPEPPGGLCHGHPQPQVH
T1 sequence (Q04206 whole entry, looked up): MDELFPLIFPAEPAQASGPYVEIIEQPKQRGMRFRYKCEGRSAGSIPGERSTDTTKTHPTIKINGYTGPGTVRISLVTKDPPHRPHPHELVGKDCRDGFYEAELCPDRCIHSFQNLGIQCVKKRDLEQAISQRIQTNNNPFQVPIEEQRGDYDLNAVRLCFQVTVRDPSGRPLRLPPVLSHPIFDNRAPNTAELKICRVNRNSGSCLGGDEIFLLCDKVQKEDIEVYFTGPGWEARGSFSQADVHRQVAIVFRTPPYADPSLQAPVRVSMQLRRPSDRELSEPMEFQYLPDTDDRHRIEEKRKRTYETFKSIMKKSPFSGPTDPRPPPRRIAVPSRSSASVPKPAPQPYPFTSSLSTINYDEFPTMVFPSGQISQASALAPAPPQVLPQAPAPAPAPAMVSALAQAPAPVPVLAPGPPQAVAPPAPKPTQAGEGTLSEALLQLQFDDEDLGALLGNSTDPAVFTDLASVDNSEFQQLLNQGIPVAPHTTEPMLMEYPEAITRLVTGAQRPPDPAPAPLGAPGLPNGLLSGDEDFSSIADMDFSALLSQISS
Sequence of TAK1-TAB1 fusion protein (O43318 whole entry, looked up, the tested form may be a part): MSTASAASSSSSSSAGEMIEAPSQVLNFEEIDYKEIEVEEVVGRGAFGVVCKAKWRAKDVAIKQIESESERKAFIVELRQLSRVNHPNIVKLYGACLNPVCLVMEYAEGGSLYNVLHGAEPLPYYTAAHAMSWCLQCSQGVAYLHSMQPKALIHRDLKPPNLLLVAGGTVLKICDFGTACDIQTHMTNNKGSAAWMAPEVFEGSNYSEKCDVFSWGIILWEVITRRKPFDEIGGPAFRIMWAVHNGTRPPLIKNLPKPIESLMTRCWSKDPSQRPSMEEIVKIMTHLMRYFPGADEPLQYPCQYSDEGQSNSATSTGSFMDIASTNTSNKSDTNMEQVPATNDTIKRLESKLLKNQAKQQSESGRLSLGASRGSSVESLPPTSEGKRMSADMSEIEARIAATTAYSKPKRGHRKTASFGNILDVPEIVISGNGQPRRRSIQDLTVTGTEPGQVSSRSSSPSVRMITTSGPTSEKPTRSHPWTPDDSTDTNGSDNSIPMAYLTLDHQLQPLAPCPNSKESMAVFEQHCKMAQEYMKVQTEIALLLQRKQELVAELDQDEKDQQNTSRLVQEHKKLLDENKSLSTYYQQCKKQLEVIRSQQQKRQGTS

Compound `CNC(=O)c1cc(Oc2ccc(Nc3nccc(N4CCCCC4)n3)cc2)ccn1` has an IC50 (HCT-116 [1]) of 540 nM, an inhibition at 20 µM (MDA-MB-231) of 52.3% and an inhibition at 20 µM (HCT-116 [2]) of 69.8%. For the same compound, the IC50 (A549 [3]) was 890 nM, the IC50 (TAK1-TAB1 fusion protein) was 580 nM and the Activity (A549 [4]) was 23.56%. The Activity (A549 [5]) was 57.49%, the Activity (A549 [6]) was 23.68% and the Activity (A549 [7]) was 18.83%. It also gave an Activity (A549 [8]) of 52.78%, an Activity (A549 [9]) of 30.57% and an Activity (A549 [10]) of 16.65%. For the same compound, the Activity (HCT-116 [11]) was 36.72%, the viability at 0.6 µM (A549 [12]) was 87.6% and the Activity (A549 [13]) was 8.16%. The Activity (A549 [14]) was 0.75%, the viability at 1.2 µM (A549 [15]) was 80.6% and the Activity (A549 [16]) was 0.74%. For the same compound, the viability at 1.8 µM (A549 [17]) was 64.4%, the Activity (A549 [18]) was 25.4% and the Activity (A549 [19]) was 9.54%. For the same compound, the Activity (A549 [20]) was 0.71%, the Activity (HCT-116 [21]) was 71.4% and the inhibition [22] was “Active”. For the same compound, the inhibition [23] was “Active”, the inhibition [24] was “Active” and the inhibition [25] was “Active”. The inhibition [26] was “Active”, the inhibition [27] was “Active” and the inhibition [28] was “Active”. The inhibition [29] was “Active”.
